Assay results taken from patent US8507493B2 (AbbVie Inc., priority 2009, dated 2013).

Each compound was assayed against T1, human 11β-HSD1 (Homo sapiens, UniProt P28845) (assay: Human 11β-HSD1 enzymatic SPA assay). Conditions: truncated (24-287aa) human 11β-HSD1, apparent Ki from IC50 by Cheng-Prusoff.
T1 construct: truncated (24-287aa) human 11β-HSD1 enzyme; made in house; host or cells: E. coli (lysate, not purified)
Format: biochemical
Procedure: The ability of test compounds to inhibit human 11β-HSD1 enzymatic activity in vitro was evaluated in a Scintillation Proximity Assay (SPA). Tritiated-cortisone substrate, NADPH cofactor and titrated compound were incubated with truncated (24-287aa) human 11β-HSD1 enzyme at room temperature to allow the conversion to cortisol to occur. The reaction was stopped by adding a non-specific 11β-HSD inhibitor, glycyrrhetinic acid. The tritiated cortisol was captured by a mixture of an anti-cortisol monoclonal antibody and SPA beads coated with anti-mouse antibodies. The reaction plate was shaken at room temperature and the radiolabel bound to SPA beads was then measured on a scintillation counter. The 11β-HSD1 assay was carried out in 96-well microtiter plates in a total volume of […]. To start the assay, 188 μL of master mix which contained 75 nM ^3H-cortisone, 100 nM cortisone and 181 μM NADPH was added to the wells. In order to drive the reaction in the 11β-reductase direction, 1 mM glucose-6-phosphate (G-6-P) and 1 U/mL G-6-P dehydrogenase were also added as a NADPH generating system. Solid compound was dissolved in dimethyl sulfoxide to make a 10 mM stock followed by a subsequent 10-fold serial dilution with dimethyl sulfoxide. Each compound solution in dimethyl sulfoxide was 10-fold diluted in Tris/EDTA buffer (pH 7.4). 22 μL of titrated compound were then added in duplicate to the substrate. Reactions were initiated by the addition of 10 μL of 0.1 mg/mL E. coli lysates overexpressing 11β-HSD1 enzyme. After shaking and incubating plates for 30 minutes at room temperature, reactions were stopped by adding 10 μL of 1 mM glycyrrhetinic acid. The product, tritiated cortisol, was captured by adding 10 μL of 1 μM monoclonal mouse anti-cortisol antibodies and 50 μL of SPA beads coated with anti-mouse antibodies. After shaking for 30 minutes, plates were read in a Microbeta scintillation counter. Percent inhibition was calculated based on the background and the maximal signal. Wells that contained substrate without compound or enzyme were used as the background, while the wells that contained substrate and enzyme without any compound were considered as maximal signal. Percent of inhibition of each compound was calculated relative to the maximal signal and IC50 curves were generated. Assuming competitive inhibition the Cheng-Prusoff equation was used to calculate apparent Ki values from the IC50 values. This assay was applied to 11β-HSD2 as well, whereby 6 nM tritiated cortisol and 250 uM NAD^+ were used as substrate and cofactor, respectively.

T1 sequence (P28845 24-287): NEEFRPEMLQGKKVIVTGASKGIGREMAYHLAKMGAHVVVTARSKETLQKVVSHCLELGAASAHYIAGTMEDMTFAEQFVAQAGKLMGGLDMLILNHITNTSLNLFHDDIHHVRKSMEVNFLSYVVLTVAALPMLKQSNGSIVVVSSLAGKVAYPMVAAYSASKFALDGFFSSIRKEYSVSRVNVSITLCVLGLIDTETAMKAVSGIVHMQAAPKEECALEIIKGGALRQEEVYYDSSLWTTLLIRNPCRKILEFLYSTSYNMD

| SMILES | Ki |
| --- | --- |
| CC(C)(OCc1ccc(C(F)(F)F)cc1)C(=NC#N)NC1C2CC3CC1CC(C#N)(C3)C2 (stereo not drawn) [Example 27, (1E)-N-Cyano-N-[(E)-5-cyano-2-adamantyl]-2-methyl-2-{[4-(trifluoromethyl)benzyl]oxy}propanimidamide] | ≤ 10 nM |
| N#CN=C(NC1C2CC3CC1CC(O)(C3)C2)C1(Oc2cccc(Cl)c2)CCC1 (stereo not drawn) [Example 15, 1-(3-Chlorophenoxy)-N′-cyano-N-[(E)-5-hydroxy-2-adamantyl]cyclobutane carboximidamide] | 100 to 1000 nM |
| N#CN=C(NC1C2CC3CC1CC(O)(C3)C2)C1(c2ccc(Cl)cc2)CCC1 (stereo not drawn) [Example 3, 1-(4-Chlorophenyl)-N′-cyano-N-[(E)-5-hydroxy-2-adamantyl]cyclobutanecarboximidamide] | > 1000 nM |
| COC(=O)C12CC3CC(C1)C(NC(=S)C(C)(C)N1CCN(c4ccc(C(F)(F)F)cn4)CC1)C(C3)C2 (stereo not drawn) [Example 21, Methyl(E)-4-[(2-methyl-2-{4-[5-(trifluoromethyl)pyridin-2-yl]piperazin-1-yl}propanethioyl)amino]adamantane-1-carboxylate] | 10 to 100 nM |
| COC(=O)C12CC3CC(C1)C(NC(=S)C(C)(C)OCc1ccc(C(F)(F)F)cc1)C(C3)C2 (stereo not drawn) [Example 16, Methyl(E)-4-[(2-methyl-2-{[4-(trifluoromethyl)benzyl]oxy}propanethioyl)amino]adamantane-1-carboxylate] | 100 to 1000 nM |
| CC(C)(Oc1ccc(Cl)cc1)C(=NC#N)NC1C2CC3CC1CC(S(C)(=O)=O)(C3)C2 (stereo not drawn) [Example 19, (1E)-2-(4-Chlorophenoxy)-N-cyano-2-methyl-N-[(E)-5-(methylsulfonyl)-2-adamantyl]propanimidamide] | 10 to 100 nM |
| CC(C)(Oc1ccc(Cl)cc1)C(=NC#N)NC1CN2CCC1CC2 (stereo not drawn) [Example 40, N-1-Azabicyclo[2.2.2]oct-3-yl-2-(4-chlorophenoxy)-N′-cyano-2-methylpropanimidamide] | > 1000 nM |
| CON=C(NC1C2CC3CC1CC(S(C)(=O)=O)(C3)C2)C(C)(C)Oc1ccc(Cl)cc1 (stereo not drawn) [Example 13, (1E)-2-(4-Chlorophenoxy)-N-methoxy-2-methyl-N-[(E)-5-(methylsulfonyl)-2-adamantyl]propanimidamide] | 100 to 1000 nM |
| Cc1ccccc1CC(=NC#N)NC1C2CC3CC1CC(O)(C3)C2 (stereo not drawn) [Example 2, (1E)-N-Cyano-N-[(E)-5-hydroxy-2-adamantyl]-2-(2-methylphenyl)ethanimidamide] | > 1000 nM |
| COC(=O)C12CC3CC(C1)C(NC(=NC#N)C(C)(C)OCc1ccc(C(F)(F)F)cc1)C(C3)C2 (stereo not drawn) [Example 17, Methyl(E)-4-[((1E)-N-cyano-2-methyl-2-{[4-(trifluoromethyl)benzyl]oxy}propanimidoyl)amino]adamantane-1-carboxylate] | 100 to 1000 nM |
| CC(C)(Oc1ccc(F)cc1Cl)/C(=N\C#N)NC1C2CC3CC1CC(S(C)(=O)=O)(C3)C2 (stereo not drawn) [Example 18, (1E)-2-(2-Chloro-4-fluorophenoxy)-N-cyano-2-methyl-N-[(E)-5-(methylsulfonyl)-2-adamantyl]propanimidamide] | 10 to 100 nM |
| COC(=O)C12CC3CC(C1)C(NC(=NC#N)C(C)(C)Oc1ccc(Cl)cc1)C(C3)C2 (stereo not drawn) [Example 11, Methyl(E)-4-{[(1E)-2-(4-chlorophenoxy)-N-cyano-2-methylpropanimidoyl]amino}adamantane-1-carboxylate] | 100 to 1000 nM |
| CC(C)(Oc1ccc(Cl)cc1)C(=NC#N)NC1C2CC3CC1CC(C(N)=O)(C3)C2 (stereo not drawn) [Example 14, (E)-4-{[(1E)-2-(4-Chlorophenoxy)-N-cyano-2-methylpropanimidoyl]amino}adamantane-1-carboxamide] | ≤ 10 nM |

The next lines start with the values.

| Ki | SMILES |
| --- | --- |
| 100 to 1000 nM | CC(C)(Oc1ccc(Cl)cn1)/C(=N\C#N)N[C@@H]1[C@@H]2C[C@@H]3C[C@H]1C[C@@](O)(C3)C2 [Example 58, (1E)-2-[(5-chloropyridin-2-yl)oxy]-N′-cyano-N-[(E)-5-hydroxyadamantan-2-yl]-2-methylpropanimidamide] |
| 100 to 1000 nM | CC(C)(Oc1ccc(Cl)cc1F)C(=NC#N)NC12CC3CC(CC1C3)C2 [Example 73, 2-(4-chloro-2-fluorophenoxy)-Y-cyano-N-(hexahydro-2,5-methanopentalen-3a(1H)-yl)-2-methylpropanimidamide] |
| 10 to 100 nM | CC(C)(Oc1ccc(Cl)cc1)/C(=N\C#N)N[C@@H]1[C@@H]2C[C@@H]3C[C@H]1C[C@@](C#N)(C3)C2 [Example 37, (1E)-2-(4-Chlorophenoxy)-N′-cyano-N-[(E)-5-cyano-2-adamantyl]-2-methylpropanimidamide] |
| > 1000 nM | CC(C)(Oc1ccccc1)C(=NC#N)NC12CCC(C(=O)O)(CC1)CC2 [Example 87, 4-{[N-cyano-2-methyl-2-phenoxypropanimidoyl]amino}bicyclo[2.2.2]octane-1-carboxylic acid] |
| 10 to 100 nM | CC(C)(Oc1ccc(F)cc1F)/C(=N\C#N)N[C@@H]1[C@@H]2C[C@@H]3C[C@H]1C[C@@](S(N)(=O)=O)(C3)C2 [Example 57] |
| > 1000 nM | Cc1c(Cl)cccc1S(=O)(=O)N1CCC[C@H](C(=NC#N)NC2CCCCC2)C1 [Example 35, (3S)-1-[(3-Chloro-2-methylphenyl)sulfonyl]-N′-cyano-N-cyclohexylpiperidine-3-carboximidamide] |
| ≤ 10 nM | CC(C)(Oc1ccc(F)cc1F)C(=NC#N)NC1C2CC3CC1CC(C(N)=O)(C3)C2 (stereo not drawn) [Example 70, (E)-4-{[(1E)-N-cyano-2-(2,4-difluorophenoxy)-2-methylpropanimidoyl]amino}adamantane-1-carboxamide] |
| > 1000 nM | CC(C)(Oc1ccc(Cl)cc1)C(=NC#N)NC1C2CC3CC1CN(C3)C2 (stereo not drawn) [Example 39, (1E)-N-[(4s)-1-Azatricyclo[3.3.1.1^3,7]dec-4-yl]-2-(4-chlorophenoxy)-N′-cyano-2-methylpropanimidamide] |
| 10 to 100 nM | CC(C)(Oc1ccc(Cl)cc1)C(=NC#N)NC12CCC(C(N)=O)(CC1)CC2 [Example 47, 4-{[2-(4-chlorophenoxy)-N-cyano-2-methylpropanimidoyl]amino}bicyclo[2.2.2]octane-1-carboxamide] |
| 10 to 100 nM | CC(C)(Oc1ccc(Cl)cn1)C(=NC#N)NC1C2CC3CC1CC(C(N)=O)(C3)C2 (stereo not drawn) [Example 75, (E)-4-({(1E)-2-[(5-chloropyridin-2-yl)oxy]-N-cyano-2-methylpropanimidoyl}amino)adamantane-1-carboxamide] |
| > 1000 nM | CC(C)(/C(=N\C#N)N[C@@H]1[C@@H]2C[C@@H]3C[C@H]1C[C@@](C(=O)O)(C3)C2)N1CCN(c2ccc(C(F)(F)F)cn2)CC1 [Example 30, (E)-4-[((1E)-N-Cyano-2-methyl-2-{4-[5-(trifluoromethyl)pyridin-2-yl]piperazin-1-yl}propanimidoyl)amino]adamantane-1-carboxylic acid] |
| 100 to 1000 nM | CC(C)(Oc1ccc(Cl)cc1)C(=NC#N)NC12CCC(C(F)F)(CC1)CC2 [Example 85, 2-(4-chlorophenoxy)-N′-cyano-N-[4-(difluoromethyl)bicyclo[2.2.2]oct-1-yl]-2-methylpropanimidamide] |
| > 1000 nM | CC(C)(Oc1ccc(Cl)cc1)C(=NC#N)NC12CCC(C(=O)O)(CC1)CC2 [Example 46, 4-{[2-(4-chlorophenoxy)-N-cyano-2-methylpropanimidoyl]amino}bicyclo[2.2.2]octane-1-carboxylic acid] |
| 100 to 1000 nM | COC(=O)C12CC3CC(C1)C(NC(=NC#N)C(C)(C)N1CC4CC(c5ccc(Cl)cc5)C4C1)C(C3)C2 (stereo not drawn) [Example 48, methyl(E)-4-({(1E)-2-[(1R*,5S*,6R*)-6-(4-chlorophenyl)-3-azabicyclo[3.2.0]hept-3-yl]-N-cyano-2-methylpropanimidoyl}amino)adamantane-1-carboxylate] |
| 100 to 1000 nM | CC1(C)/C(=N/C#N)N([C@@H]2[C@@H]3C[C@@H]4C[C@H]2C[C@@](S(C)(=O)=O)(C4)C3)CC1COc1ccc(C#N)cn1 (stereo partly drawn) [Example 33, (2Z)-4-{[(5-Cyanopyridin-2-yl)oxy]methyl}-3,3-dimethyl-1-[(E)-5-(methylsulfonyl)-2-adamantyl]pyrrolidin-2-ylidenecyanamide] |
| 100 to 1000 nM | COC(=O)C12CC3CC(C1)C(NC(=NC#N)C(C)(C)N1CCN(c4ccc(C(F)(F)F)cn4)CC1)C(C3)C2 (stereo not drawn) [Example 29, Methyl(E)-4-[((1E)-N-cyano-2-methyl-2-{4-[5-(trifluoromethyl)pyridin-2-yl]piperazin-1-yl}propanimidoyl)amino]adamantane-1-carboxylate] |
| 10 to 100 nM | CC(C)(Oc1ccc(Cl)cc1F)C(=NC#N)NC1C2CC3CC(C2)CC1C3 (stereo not drawn) [Example 62, (1E)-N-[(E)-adamantan-2-yl]-2-(4-chloro-2-fluorophenoxy)-N-cyano-2-methylpropanimidamide] |
